Measured values reported in publication PMC10860144, “Exploring the Dispersion and Electrostatic Components in Arene–Arene Interactions between Ligands and G4 DNA to Develop G4-Ligands” (Journal of Medicinal Chemistry, 2024).

Legend:
[1] = tested on: G4 structure on DNA template (PEPu24T); test: Taq polymerase stop (primer extension) assay, G4 template; format: biochemical
Source text: To challenge all the synthesized compounds (2–11 and 25–29) in a more intricate context, we conducted a Taq polymerase stop assay to evaluate their capacity to impede DNA synthesis through G4 stabilization. In this assay, we compared the progress of the Taq DNA polymerase along two distinct DNA templates: one with a G4 structure (Figure 5) and another serving as a non-G4 control (Figure S21). If an external species (e.g., G4 ligand) binds and stabilizes the G4 structure, the polymerase will be partially halted. The extent of this DNA polymerase stalling is dependent on the ability of the compound to stabilize the G4 on the DNA template. The increased G4 stabilization can be detected as a reduction in the amount of newly synthesized DNA that has reached the end of the DNA template (full-length/end-product). Analysis of these shorter terminated DNA products will give information about the precise location of the DNA polymerase stalling with a single nucleotide resolution. If the ligand imposes little to no stabilization or binding, the G4 is readily resolved by the DNA polymerase, and no difference in the amount of DNA end-product can therefore be expected upon the addition of the compound.
Templates for the primer extension assay were created by annealing 25 nt TET labeled primer (1 μM final concentration) to either PEPu24T or a mutated sequence not forming a G4, PEPu24T mut, (1.25 μM final concentration) in 100 mM KCl by heating to 95 °C for 5 min and slowly cooling to room temperature. […] Compounds were added in the indicated concentration and incubated on ice for 10 min before starting the reaction by adding dNTPs (100 μM final concentration) to the reaction and transferring it to 37 °C. Reactions were stopped after 15 min by addition of 10 μL of formamide loading buffer (0.5% SDS, 25 mM EDTA, 95% v/v formamide and xylene-cyanol). Samples were then loaded on a 12% polyacrylamide gel containing 7 M urea and 25% formamide and imaged using an Amersham Typhoon. The images were quantified using ImageJ 1.53e software, and the percentage of full-length product compared to a sample without compound was calculated.
Templates for the primer extension assay were created by annealing 25nt TET labelled primer (1 µM final concentration) to either PEPu24T or a mutated sequence not forming a G4, PEPu24T mut, (1.25 µM final concentration) in 100 mM KCl by heating to 95 °C for 5 min and slowly cooling to room temperature. The reaction mixture (10 µl) contained 1X Taq Buffer with KCl (10 mM Tris-HCl pH 8.8, 50 mM KCl, detergent), 25 mM MgCl2, […]
[…] Compounds were added in the indicated concentration and incubated on ice for 10 min before starting the reaction by adding dNTPs (100 µM final concentration) to the reaction and transferring it to 37 °C. Reactions were stopped after 15 min by addition of 10 µl of formamide loading buffer (0,5% SDS, 25 mM EDTA, 95% v/v formamide and xylene-cyanol). Samples were then loaded on a 12% polyacrylamide gel containing 7 M urea and 25% formamide and imaged using an Amersham™ Typhoon™.
The images were quantified using ImageJ 1.53e software and the percentage of full-length product compared to a sample without compound was calculated. […]

c-MYC Pu22 G4 DNA = test: FRET melting assay, c-MYC Pu22 G4 DNA; format: binding, human; settings: c-MYC Pu22 G4 DNA 0.2 μM; for increased thermal stability (ΔTm): 40 equivalences of added compound
Source text: The synthesized compounds (2–11) were first analyzed using a Förster resonance energy transfer (FRET) assay (Figure 2A). This assay measures the compounds’ ability to affect the thermal stability of fluorescently labeled DNA, in this case, the c-MYC Pu22 G4 DNA (Table S1). […] The addition of one methyl group to the quinazoline core (3) provides almost twice as strong thermal stability compared to 2. The addition of a second methyl group (4) further increased stabilization, albeit modestly (by 0.5 °C). This slight increase between 3 and 4 could stem from the suboptimal positioning of the added methyl substituent in relation to the guanines on the G4 surface, compared to other positions on the quinazoline ring. […] Furthermore, the methyl-substituted (4) and the methoxy-substituted (6) display a similar G4 stabilization despite the strong electrostatic character of the methoxy substituent compared to the neutral methyl group, which further supports that these interactions are dispersion-driven. This conclusion is further supported by the fact that the replacement of the methoxy group in 6 with chlorine in 7 results in a very similar stabilization as 3, 4, and 6.
Synthetic labeled oligonucleotides for the FRET study were purchased from Eurofins Genomics. Stock solutions were prepared in MQ-water at 100 μM concentration. The sequences used are listed in Supporting Information Table S1. All the oligonucleotides except Pu22 were prefolded in 10 mM lithium cacodylate buffer (pH 7.4), with 10 mM KCl and 90 mM LiCl by heating for 10 min at 95 °C and then cooling in fridge for at least 1 h. Pu22 was folded in 10 mM lithium cacodylate buffer (pH 7.4), with 2 mM KCl and 98 mM LiCl.
The FRET occurs between two dyes (5′-FAM as donor and 3′-TAMRA as acceptor) linked at both extremities of a DNA oligonucleotide. When the oligonucleotides are folded into G4 structures, the donor and acceptor are in proximity, which results in an energy transfer from the donor to the acceptor. This process can be detected by a reduction in the fluorescence emission of the donor. Fluorescence emission of the donor is recovered when the temperature increment triggers the thermal denaturation of the G4 structure. The experiments were performed in a Bio-Rad CFX96 real-time PCR device at temperatures from 10 to 95 °C at 1.5 °C/m heating rate using a 492 nm excitation wavelength and a 516 nm detection wavelength in 96-well plates. […] The stabilization (ΔTm) is calculated from comparison of Tm of the fluorescently labeled oligonucleotide in the presence or absence of the ligand. […]
The fluorescence resonance energy transfer (FRET) occurs between two dyes (5'-FAM as donor and 3'- TAMRA as acceptor) linked at both extremities of a DNA oligonucleotide. […]

full-length DNA product ([1]; compound 0.24 μM, compared to DMSO control) | blocking of the Taq DNA polymerase at the G4 structure (in words) ([1]; compound 0.24 μM) | IC50 ([1]; G4 template, DNA 0.048 μM, read-out: concentration reaching 50% inhibition of DNA end-product) [µM] | SMILES | increased thermal stability (ΔTm) (c-MYC Pu22 G4 DNA) [°C] | increase in thermal stability (ΔTm) (c-MYC Pu22 G4 DNA; compound 8 μM) [°C]
about 65% |  |  | Cc1cc(NCCCN(C)C)nc(Nc2ncc3ccccc3n2)n1 [Compound 2, N4-(3-(Dimethylamino)propyl)-6-methyl-N2-(quinazolin-2-yl)pyrimidine-2,4-diamine] | 7.5 | 
 | almost completely blocked |  | Cc1cc(C)c2nc(Nc3nc(C)cc(NCCCN(C)C)n3)nc(C)c2c1 [Compound 5, N4-(3-(Dimethylamino)propyl)-6-methyl-N2-(4,6,8-trimethylquinazolin-2-yl)pyrimidine-2,4-diamine] | 20 | 
 |  | 1.2 | Cc1cc(C)c2nc(Nc3nc(C)cc(C)n3)nc(C)c2c1 [Compound 27, N-(4,6-Dimethylpyrimidin-2-yl)-4,6,8-trimethylquinazolin-2-amine] |  | 12
